Experimental data taken from PubChem BioAssay (NCI).
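Method: 48-hour compound exposure of cells in 96-well plates, five concentrations, linear interpolation of endpoints. At the TGI there is no net growth.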

Legend:
Assay in all cases: NCI tumour cell line growth inhibition, 48 h
OVCAR-5 ovarian = tested on: OVCAR-5 ovarian
MDA-N = tested on: MDA-N
IGROV1 ovarian = tested on: IGROV1 ovarian
BT-549 breast = tested on: BT-549 breast
MALME-3M melanoma = tested on: MALME-3M melanoma
PC-3 prostate = tested on: PC-3 prostate
SNB-75 CNS = tested on: SNB-75 CNS
T-47D breast = tested on: T-47D breast
TK-10 renal = tested on: TK-10 renal
MDA-MB-231 breast = tested on: MDA-MB-231 breast
SR leukemia = tested on: SR leukemia
UACC-62 melanoma = tested on: UACC-62 melanoma
OVCAR-3 ovarian = tested on: OVCAR-3 ovarian
HCC-2998 colon = tested on: HCC-2998 colon
SK-MEL-28 melanoma = tested on: SK-MEL-28 melanoma
KM12 colon = tested on: KM12 colon
M14 melanoma = tested on: M14 melanoma
786-0 renal = tested on: 786-0 renal
UO-31 renal = tested on: UO-31 renal
UACC-257 melanoma = tested on: UACC-257 melanoma
RPMI-8226 leukemia = tested on: RPMI-8226 leukemia
OVCAR-4 ovarian = tested on: OVCAR-4 ovarian
OVCAR-8 ovarian = tested on: OVCAR-8 ovarian
MCF7 breast = tested on: MCF7 breast
RXF 393 renal = tested on: RXF 393 renal
CCRF-CEM leukemia = tested on: CCRF-CEM leukemia
EKVX NSCLC = tested on: EKVX NSCLC
HT29 colon = tested on: HT29 colon
U251 CNS = tested on: U251 CNS
SK-MEL-5 melanoma = tested on: SK-MEL-5 melanoma
NCI-H23 lung = tested on: NCI-H23 lung
HOP-62 NSCLC = tested on: HOP-62 NSCLC
SNB-19 CNS = tested on: SNB-19 CNS
NCI-H226 lung = tested on: NCI-H226 lung
NCI-H460 lung = tested on: NCI-H460 lung
HOP-92 NSCLC = tested on: HOP-92 NSCLC
ACHN renal = tested on: ACHN renal
A549 NSCLC = tested on: A549 NSCLC
CAKI-1 renal = tested on: CAKI-1 renal
SF-268 CNS = tested on: SF-268 CNS
HL-60(TB) leukemia = tested on: HL-60(TB) leukemia
SF-539 CNS = tested on: SF-539 CNS
SK-OV-3 ovarian = tested on: SK-OV-3 ovarian
HCT-116 colon = tested on: HCT-116 colon
SW-620 colon = tested on: SW-620 colon
K-562 leukemia = tested on: K-562 leukemia
SN12C renal = tested on: SN12C renal
HCT-15 colon = tested on: HCT-15 colon
MDA-MB-435 = tested on: MDA-MB-435
NCI/ADR-RES ovarian = tested on: NCI/ADR-RES ovarian
HS 578T breast = tested on: HS 578T breast
NCI-H522 lung = tested on: NCI-H522 lung
DU-145 prostate = tested on: DU-145 prostate
SF-295 CNS = tested on: SF-295 CNS
COLO 205 colon = tested on: COLO 205 colon
MOLT-4 leukemia = tested on: MOLT-4 leukemia
LOX IMVI melanoma = tested on: LOX IMVI melanoma
SK-MEL-2 melanoma = tested on: SK-MEL-2 melanoma
A498 renal = tested on: A498 renal

## Cc1noc(NS(=O)(=O)c2ccc(NC(=O)c3ccc4[nH]c5ccccc5c(=O)c4c3)cc2)c1C
OVCAR-5 ovarian
  TGI: > 100 µM
MDA-N
  TGI: > 100 µM
IGROV1 ovarian
  TGI: > 100 µM
BT-549 breast
  TGI: > 100 µM
MALME-3M melanoma
  TGI: > 100 µM
PC-3 prostate
  TGI: > 100 µM
SNB-75 CNS
  TGI: > 100 µM
T-47D breast
  TGI: 63.2 µM
TK-10 renal
  TGI: > 100 µM
MDA-MB-231 breast
  TGI: > 100 µM
SR leukemia
  TGI: 85.2 µM
UACC-62 melanoma
  TGI: > 100 µM
OVCAR-3 ovarian
  TGI: 77.8 µM
HCC-2998 colon
  TGI: 65.2 µM
SK-MEL-28 melanoma
  TGI: > 100 µM
KM12 colon
  TGI: > 100 µM
M14 melanoma
  TGI: > 100 µM
786-0 renal
  TGI: > 100 µM
UO-31 renal
  TGI: > 100 µM
UACC-257 melanoma
  TGI: > 100 µM
RPMI-8226 leukemia
  TGI: > 100 µM
OVCAR-4 ovarian
  TGI: > 100 µM
OVCAR-8 ovarian
  TGI: > 100 µM
MCF7 breast
  TGI: 66.5 µM
RXF 393 renal
  TGI: 98 µM
CCRF-CEM leukemia
  TGI: 67.3 µM
EKVX NSCLC
  TGI: > 100 µM
HT29 colon
  TGI: > 100 µM
U251 CNS
  TGI: > 100 µM
SK-MEL-5 melanoma
  TGI: > 100 µM
NCI-H23 lung
  TGI: > 100 µM
HOP-62 NSCLC
  TGI: > 100 µM
SNB-19 CNS
  TGI: > 100 µM
NCI-H226 lung
  TGI: > 100 µM
NCI-H460 lung
  TGI: > 100 µM
HOP-92 NSCLC
  TGI: > 100 µM
ACHN renal
  TGI: > 100 µM
A549 NSCLC
  TGI: > 100 µM
CAKI-1 renal
  TGI: > 100 µM
SF-268 CNS
  TGI: > 100 µM
HL-60(TB) leukemia
  TGI: 66.8 µM
SF-539 CNS
  TGI: 62.2 µM
SK-OV-3 ovarian
  TGI: > 100 µM
HCT-116 colon
  TGI: > 100 µM
SW-620 colon
  TGI: > 100 µM
K-562 leukemia
  TGI: 81.5 µM
SN12C renal
  TGI: > 100 µM
HCT-15 colon
  TGI: > 100 µM
MDA-MB-435
  TGI: > 100 µM
NCI/ADR-RES ovarian
  TGI: > 100 µM
HS 578T breast
  TGI: > 100 µM
NCI-H522 lung
  TGI: 76.2 µM
DU-145 prostate
  TGI: > 100 µM
SF-295 CNS
  TGI: > 100 µM
COLO 205 colon
  TGI: > 100 µM
MOLT-4 leukemia
  TGI: 67.6 µM
LOX IMVI melanoma
  TGI: 56.5 µM
SK-MEL-2 melanoma
  TGI: > 100 µM

## CC(C)(C)OC(=O)CCC1NC(=O)[C@@H]2Cc3c([nH]c4ccccc34)C(C3CCCCC3)N2C1=O (stereo partly drawn)
OVCAR-5 ovarian
  TGI: > 100 µM
MDA-N
  TGI: > 100 µM
IGROV1 ovarian
  TGI: > 100 µM
BT-549 breast
  TGI: > 100 µM
MALME-3M melanoma
  TGI: 80.3 µM
PC-3 prostate
  TGI: 74.2 µM
T-47D breast
  TGI: > 100 µM
TK-10 renal
  TGI: > 100 µM
MDA-MB-231 breast
  TGI: 76.6 µM
SR leukemia
  TGI: 61.1 µM
UACC-62 melanoma
  TGI: > 100 µM
OVCAR-3 ovarian
  TGI: 99.7 µM
SK-MEL-28 melanoma
  TGI: > 100 µM
KM12 colon
  TGI: 78 µM
M14 melanoma
  TGI: > 100 µM
786-0 renal
  TGI: > 100 µM
UO-31 renal
  TGI: > 100 µM
UACC-257 melanoma
  TGI: > 100 µM
RPMI-8226 leukemia
  TGI: 56.5 µM
OVCAR-4 ovarian
  TGI: > 100 µM
OVCAR-8 ovarian
  TGI: > 100 µM
MCF7 breast
  TGI: > 100 µM
RXF 393 renal
  TGI: > 100 µM
EKVX NSCLC
  TGI: > 100 µM
HT29 colon
  TGI: 40.2 µM
U251 CNS
  TGI: > 100 µM
SK-MEL-5 melanoma
  TGI: > 100 µM
NCI-H23 lung
  TGI: > 100 µM
HOP-62 NSCLC
  TGI: > 100 µM
SNB-19 CNS
  TGI: > 100 µM
NCI-H226 lung
  TGI: > 100 µM
HOP-92 NSCLC
  TGI: 78.3 µM
ACHN renal
  TGI: > 100 µM
A498 renal
  TGI: > 100 µM
A549 NSCLC
  TGI: > 100 µM
CAKI-1 renal
  TGI: > 100 µM
SF-268 CNS
  TGI: > 100 µM
HL-60(TB) leukemia
  TGI: 41.9 µM
SK-OV-3 ovarian
  TGI: > 100 µM
HCT-116 colon
  TGI: > 100 µM
SW-620 colon
  TGI: > 100 µM
K-562 leukemia
  TGI: > 100 µM
SN12C renal
  TGI: 65.6 µM
HCT-15 colon
  TGI: > 100 µM
MDA-MB-435
  TGI: > 100 µM
NCI/ADR-RES ovarian
  TGI: > 100 µM
HS 578T breast
  TGI: > 100 µM
NCI-H522 lung
  TGI: > 100 µM
DU-145 prostate
  TGI: > 100 µM
SF-295 CNS
  TGI: 66.2 µM
COLO 205 colon
  TGI: 38.9 µM
MOLT-4 leukemia
  TGI: 61.3 µM
LOX IMVI melanoma
  TGI: > 100 µM
SK-MEL-2 melanoma
  TGI: 65.5 µM

## N#C/C(=C\c1ccc(Cl)cc1)c1nc(-c2cc3ccccc3oc2=O)cs1
OVCAR-5 ovarian
  TGI: > 100 µM
MDA-N
  TGI: > 100 µM
IGROV1 ovarian
  TGI: > 100 µM
BT-549 breast
  TGI: 31.8 µM
MALME-3M melanoma
  TGI: > 100 µM
PC-3 prostate
  TGI: > 100 µM
SNB-75 CNS
  TGI: > 100 µM
T-47D breast
  TGI: > 100 µM
TK-10 renal
  TGI: 94.6 µM
MDA-MB-231 breast
  TGI: 47.8 µM
SR leukemia
  TGI: > 100 µM
UACC-62 melanoma
  TGI: 85.3 µM
HCC-2998 colon
  TGI: > 100 µM
SK-MEL-28 melanoma
  TGI: > 100 µM
KM12 colon
  TGI: > 100 µM
M14 melanoma
  TGI: > 100 µM
786-0 renal
  TGI: > 100 µM
UO-31 renal
  TGI: > 100 µM
UACC-257 melanoma
  TGI: > 100 µM
RPMI-8226 leukemia
  TGI: > 100 µM
OVCAR-4 ovarian
  TGI: > 100 µM
OVCAR-8 ovarian
  TGI: > 100 µM
MCF7 breast
  TGI: > 100 µM
RXF 393 renal
  TGI: > 100 µM
CCRF-CEM leukemia
  TGI: > 100 µM
EKVX NSCLC
  TGI: > 100 µM
HT29 colon
  TGI: > 100 µM
U251 CNS
  TGI: 93.3 µM
SK-MEL-5 melanoma
  TGI: > 100 µM
HOP-62 NSCLC
  TGI: 58.2 µM
SNB-19 CNS
  TGI: > 100 µM
NCI-H226 lung
  TGI: > 100 µM
NCI-H460 lung
  TGI: > 100 µM
HOP-92 NSCLC
  TGI: 51.3 µM
ACHN renal
  TGI: > 100 µM
A549 NSCLC
  TGI: > 100 µM
CAKI-1 renal
  TGI: > 100 µM
SF-268 CNS
  TGI: > 100 µM
HL-60(TB) leukemia
  TGI: > 100 µM
SF-539 CNS
  TGI: > 100 µM
SK-OV-3 ovarian
  TGI: > 100 µM
HCT-116 colon
  TGI: > 100 µM
SW-620 colon
  TGI: > 100 µM
K-562 leukemia
  TGI: > 100 µM
SN12C renal
  TGI: > 100 µM
HCT-15 colon
  TGI: > 100 µM
MDA-MB-435
  TGI: > 100 µM
NCI/ADR-RES ovarian
  TGI: > 100 µM
HS 578T breast
  TGI: 37.7 µM
NCI-H522 lung
  TGI: 50.1 µM
DU-145 prostate
  TGI: > 100 µM
SF-295 CNS
  TGI: > 100 µM
COLO 205 colon
  TGI: > 100 µM
MOLT-4 leukemia
  TGI: > 100 µM
LOX IMVI melanoma
  TGI: > 100 µM
SK-MEL-2 melanoma
  TGI: > 100 µM
